ChEMBL document CHEMBL5154747, “Discovery of new carbonic anhydrase IX inhibitors as anticancer agents by toning the hydrophobic and hydrophilic rims of the active site to encounter the dual-tail approach” (Eur J Med Chem, 2022)

How the values were obtained:
[1] = target: Carbonic anhydrase 9 (Homo sapiens, UniProt Q16790); experiment: Inhibition of recombinant human CA 9 preincubated for 15 mins by phenol red dye based stopped flow CO2 hydration assay
[2] = test system: CCRF-CEM; experiment: Anticancer activity against human CCRF-CEM cells assessed as cell growth inhibition at 10 uM incubated for 48 hrs by SRB assay relative to control; format: functional; conditions: read-out: GI
[3] = test system: RPMI-8226; experiment: Anticancer activity against human RPMI-8226 cells assessed as cell growth inhibition at 10 uM incubated for 48 hrs by SRB assay relative to control; format: functional; conditions: read-out: GI
[4] = test system: SR; experiment: Anticancer activity against human SR cells assessed as cell growth inhibition at 10 uM incubated for 48 hrs by SRB assay relative to control; format: functional; conditions: read-out: GI
[5] = test system: A549; experiment: Anticancer activity against human A549 cells assessed as cell growth inhibition at 10 uM incubated for 48 hrs by SRB assay relative to control; format: functional; conditions: read-out: GI
[6] = test system: HOP-92; experiment: Anticancer activity against human HOP-92 cells assessed as cell growth inhibition at 10 uM incubated for 48 hrs by SRB assay relative to control; format: functional; conditions: read-out: GI
[7] = test system: NCI-H226; experiment: Anticancer activity against human NCI-H226 cells assessed as cell growth inhibition at 10 uM incubated for 48 hrs by SRB assay relative to control; format: functional; conditions: read-out: GI
[8] = test system: NCI-H23; experiment: Anticancer activity against human NCI-H23 cells assessed as cell growth inhibition at 10 uM incubated for 48 hrs by SRB assay relative to control; format: functional; conditions: read-out: GI
[9] = test system: NCI-H460; experiment: Anticancer activity against human NCI-H460 cells assessed as cell growth inhibition at 10 uM incubated for 48 hrs by SRB assay relative to control; format: functional; conditions: read-out: GI
[10] = test system: NCI-H522; experiment: Anticancer activity against human NCI-H522 cells assessed as cell growth inhibition at 10 uM incubated for 48 hrs by SRB assay relative to control; format: functional; conditions: read-out: GI
[11] = test system: HCC 2998; experiment: Anticancer activity against human HCC 2998 cells assessed as cell growth inhibition at 10 uM incubated for 48 hrs by SRB assay relative to control; format: functional; conditions: read-out: GI
[12] = test system: HCT-116; experiment: Anticancer activity against human HCT-116 cells assessed as cell growth inhibition at 10 uM incubated for 48 hrs by SRB assay relative to control; format: functional; conditions: read-out: GI
[13] = test system: HCT-15; experiment: Anticancer activity against human HCT-15 cells assessed as cell growth inhibition at 10 uM incubated for 48 hrs by SRB assay relative to control; format: functional; conditions: read-out: GI
[14] = test system: HT-29; experiment: Anticancer activity against human HT-29 cells assessed as cell growth inhibition at 10 uM incubated for 48 hrs by SRB assay relative to control; format: functional; conditions: read-out: GI
[15] = test system: KM12; experiment: Anticancer activity against human KM12 cells assessed as cell growth inhibition at 10 uM incubated for 48 hrs by SRB assay relative to control; format: functional; conditions: read-out: GI
[16] = test system: SW-620; experiment: Anticancer activity against human SW-620 cells assessed as cell growth inhibition at 10 uM incubated for 48 hrs by SRB assay relative to control; format: functional; conditions: read-out: GI
[17] = test system: SF-268; experiment: Anticancer activity against human SF-268 cells assessed as cell growth inhibition at 10 uM incubated for 48 hrs by SRB assay relative to control; format: functional; conditions: read-out: GI
[18] = test system: SF-539; experiment: Anticancer activity against human SF-539 cells assessed as cell growth inhibition at 10 uM incubated for 48 hrs by SRB assay relative to control; format: functional; conditions: read-out: GI
[19] = test system: SNB-75; experiment: Anticancer activity against human SNB-75 cells assessed as cell growth inhibition at 10 uM incubated for 48 hrs by SRB assay relative to control; format: functional; conditions: read-out: GI
[20] = test system: LOX IMVI; experiment: Anticancer activity against human LOX IMVI cells assessed as cell growth inhibition at 10 uM incubated for 48 hrs by SRB assay relative to control; format: functional; conditions: read-out: GI
[21] = test system: Malme-3M; experiment: Anticancer activity against human Malme-3M cells assessed as cell growth inhibition at 10 uM incubated for 48 hrs by SRB assay relative to control; format: functional; conditions: read-out: GI
[22] = test system: MDA-MB-435; experiment: Anticancer activity against human MDA-MB-435 cells assessed as cell growth inhibition at 10 uM incubated for 48 hrs by SRB assay relative to control; format: functional; conditions: read-out: GI
[23] = test system: SK-MEL-2; experiment: Anticancer activity against human SK-MEL-2 cells assessed as cell growth inhibition at 10 uM incubated for 48 hrs by SRB assay relative to control; format: functional; conditions: read-out: GI
[24] = test system: SK-MEL-5; experiment: Anticancer activity against human SK-MEL-5 cells assessed as cell growth inhibition at 10 uM incubated for 48 hrs by SRB assay relative to control; format: functional; conditions: read-out: GI
[25] = test system: UACC-257; experiment: Anticancer activity against human UACC-257 cells assessed as cell growth inhibition at 10 uM incubated for 48 hrs by SRB assay relative to control; format: functional; conditions: read-out: GI
[26] = test system: IGROV-1; experiment: Anticancer activity against human IGROV-1 cells assessed as cell growth inhibition at 10 uM incubated for 48 hrs by SRB assay relative to control; format: functional; conditions: read-out: GI
[27] = test system: OVCAR-3; experiment: Anticancer activity against human OVCAR-3 cells assessed as cell growth inhibition at 10 uM incubated for 48 hrs by SRB assay relative to control; format: functional; conditions: read-out: GI
[28] = test system: NCI/ADR-RES; experiment: Anticancer activity against human NCI/ADR-RES cells assessed as cell growth inhibition at 10 uM incubated for 48 hrs by SRB assay relative to control; format: functional; conditions: read-out: GI
[29] = test system: SK-OV-3; experiment: Anticancer activity against human SK-OV-3 cells assessed as cell growth inhibition at 10 uM incubated for 48 hrs by SRB assay relative to control; format: functional; conditions: read-out: GI
[30] = test system: A498; experiment: Anticancer activity against human A498 cells assessed as cell growth inhibition at 10 uM incubated for 48 hrs by SRB assay relative to control; format: functional; conditions: read-out: GI
[31] = test system: ACHN; experiment: Anticancer activity against human ACHN cells assessed as cell growth inhibition at 10 uM incubated for 48 hrs by SRB assay relative to control; format: functional; conditions: read-out: GI
[32] = test system: CAKI-1; experiment: Anticancer activity against human CAKI-1 cells assessed as cell growth inhibition at 10 uM incubated for 48 hrs by SRB assay relative to control; format: functional; conditions: read-out: GI
[33] = test system: SN12C; experiment: Anticancer activity against human SN12C cells assessed as cell growth inhibition at 10 uM incubated for 48 hrs by SRB assay relative to control; format: functional; conditions: read-out: GI
[34] = test system: UO-31; experiment: Anticancer activity against human UO-31 cells assessed as cell growth inhibition at 10 uM incubated for 48 hrs by SRB assay relative to control; format: functional; conditions: read-out: GI
[35] = test system: PC-3; experiment: Anticancer activity against human PC-3 cells assessed as cell growth inhibition at 10 uM incubated for 48 hrs by SRB assay relative to control; format: functional; conditions: read-out: GI
[36] = test system: MCF7; experiment: Anticancer activity against human MCF7 cells assessed as cell growth inhibition at 10 uM incubated for 48 hrs by SRB assay relative to control; format: functional; conditions: read-out: GI
[37] = test system: MDA-MB-231; experiment: Anticancer activity against human MDA-MB-231 cells assessed as cell growth inhibition at 10 uM incubated for 48 hrs by SRB assay relative to control; format: functional; conditions: read-out: GI
[38] = test system: Hs-578T; experiment: Anticancer activity against human Hs-578T cells assessed as cell growth inhibition at 10 uM incubated for 48 hrs by SRB assay relative to control; format: functional; conditions: read-out: GI
[39] = test system: T47D; experiment: Anticancer activity against human T47D cells assessed as cell growth inhibition at 10 uM incubated for 48 hrs by SRB assay relative to control; format: functional; conditions: read-out: GI
[40] = test system: MDA-MB-468; experiment: Anticancer activity against human MDA-MB-468 cells assessed as cell growth inhibition at 10 uM incubated for 48 hrs by SRB assay relative to control; format: functional; conditions: read-out: GI

SMILES	Ki [1] [nM]	inhibition of growth at 10 µM [2] [%]	inhibition of growth at 10 µM [3] [%]	inhibition of growth at 10 µM [4] [%]	inhibition of growth at 10 µM [5] [%]	inhibition of growth at 10 µM [6] [%]	inhibition of growth at 10 µM [7] [%]	inhibition of growth at 10 µM [8] [%]	inhibition of growth at 10 µM [9] [%]	inhibition of growth at 10 µM [10] [%]	inhibition of growth at 10 µM [11] [%]	inhibition of growth at 10 µM [12] [%]	inhibition of growth at 10 µM [13] [%]	inhibition of growth at 10 µM [14] [%]	inhibition of growth at 10 µM [15] [%]	inhibition of growth at 10 µM [16] [%]	inhibition of growth at 10 µM [17] [%]	inhibition of growth at 10 µM [18] [%]	inhibition of growth at 10 µM [19] [%]	inhibition of growth at 10 µM [20] [%]	also measured
NS(=O)(=O)c1ccc(Nc2nc(N/N=C/C=C/c3ccccc3)nc(Nc3ccccc3)n2)cc1	233	75	71	85	30	16	41	59	93	33	61	70	55	65	44	48	53	60	57	72	inhibition of growth at 10 µM [21]: 49%; inhibition of growth at 10 µM [22]: 48%; inhibition of growth at 10 µM [23]: 55%; inhibition of growth at 10 µM [24]: 59%; inhibition of growth at 10 µM [25]: 20%; inhibition of growth at 10 µM [26]: 63%; inhibition of growth at 10 µM [27]: 55%; inhibition of growth at 10 µM [28]: < 10%; inhibition of growth at 10 µM [29]: 21%; inhibition of growth at 10 µM [30]: 59%; inhibition of growth at 10 µM [31]: 61%; inhibition of growth at 10 µM [32]: 53%; inhibition of growth at 10 µM [33]: 51%; inhibition of growth at 10 µM [34]: 60%; inhibition of growth at 10 µM [35]: 52%; inhibition of growth at 10 µM [36]: 84%; inhibition of growth at 10 µM [37]: 52%; inhibition of growth at 10 µM [38]: 60%; inhibition of growth at 10 µM [39]: 81%; inhibition of growth at 10 µM [40]: 84%
NS(=O)(=O)c1ccc(Nc2nc(N/N=C/c3ccc(C(F)(F)F)cc3)nc(Nc3ccccc3)n2)cc1	29.7	88	105	92	72	42	63	47	85	62	46	90	68	88	78	45	49	76	58	90	inhibition of growth at 10 µM [21]: 77%; inhibition of growth at 10 µM [22]: 80%; inhibition of growth at 10 µM [23]: 71%; inhibition of growth at 10 µM [24]: 65%; inhibition of growth at 10 µM [25]: 60%; inhibition of growth at 10 µM [26]: 68%; inhibition of growth at 10 µM [27]: 88%; inhibition of growth at 10 µM [28]: 12%; inhibition of growth at 10 µM [29]: 44%; inhibition of growth at 10 µM [30]: 60%; inhibition of growth at 10 µM [31]: 60%; inhibition of growth at 10 µM [32]: 66%; inhibition of growth at 10 µM [33]: 57%; inhibition of growth at 10 µM [34]: 39%; inhibition of growth at 10 µM [35]: 85%; inhibition of growth at 10 µM [36]: 89%; inhibition of growth at 10 µM [37]: 73%; inhibition of growth at 10 µM [38]: 91%; inhibition of growth at 10 µM [39]: 68%; inhibition of growth at 10 µM [40]: 65%
